Columns and labels:
primary astrocytes [1] = assay: Intracellular glycogen quantification in astrocytes; type: cell-based, mouse; settings: 10 μM, 3 h, vs vehicle
Description: (§1) Primary cultures of cerebrocortical astrocytes were obtained from 1 to 2-day-old OF1 mouse pups (Charles River). Briefly, cortices were isolated and minced in small pieces under a dissecting microscope. The cells were incubated for 30 min at 37° C. in a solution containing 20 U/ml papain, 1 mM L-cysteine and 10 kU/ml DNase I. After dissociation, papain activity was stopped by the addition of fetal calf serum (FCS). Single-cell suspension was then obtained by mechanical dissociation, which consisted in cells trituration in a DMEM D7777 medium supplemented with 44 mm NaHCO3, 10 ml/L antibiotic/antimycotic solution and 10% FCS. […]
Astrocytes grown on 12-well plates were used for intracellular glycogen quantifications. […]
First, the amount of proteins in each sample was quantified to assess whether harvested astrocytes from primary cell cultures yielded enough and equivalent amounts of proteins on each replicates. Proteins were quantified using the micro BCA Protein Assay kit (Thermo Scientific), according to manufacturer's instructions. Next, intracellular glycogen concentrations were quantified using a 250 μl-aliquot of the same stimulated, thawed, and sonicated cell lysate. […] Fluorescence intensity (340 nm excitation/440 nm emission) was measured using a Safire 2 spectrophotometer. […]

[2] = test system: G93A SOD1 mouse model of ALS; assay: SOD1 G93A mouse ALS model - grip test; type: in vivo; settings: vs vehicle
Description: (§2) For pharmacodynamics (FIG. 4) and cognition (FIG. 6) experiments, adult male C57Bl/6J wild-type mice weighting 18-28 g (8 weeks of age) were used (Charles River). For ALS mouse models (FIG. 5), G93A SOD1 transgenic male and female mice on B6.SJL1-Gur/J background were used (Jackson Laboratory).
(§3) Animals were housed in groups of 3-5 in polypropylene cages (30×40×15 cm) with wire mesh top in a temperature (22±2° C.) and humidity (55±15%) controlled environment on a 12 hour light cycle (07.00-19.00 h lights on), except after surgeries when animal were housed individually. […]
(§4) Transgenic mice on B6.SJL1-Gur/J background overexpressing the human mutated gene G93A SOD1 were used. […] F1 pups were genotyped after ear punching at weaning, using quantitative PCR (qPCR), which allowed determining the number of SOD1 copies in each mouse.
(§5) To test for the potential therapeutic effect of the administered compound, SOD1 mice were given orally the compound of the invention (10 mg/kg) or vehicle every day from post-natal day 30 (weaning) throughout their entire life. […] Each mouse's weight was recorded every day throughout the entire treatment, while neuromuscular function was measured once a week. […]

[3] = test system: G93A SOD1 mouse model of ALS; assay: SOD1 G93A mouse ALS model - survival; type: in vivo; settings: 10 mg/kg orally every day from post-natal day 30 to final stage, G93A SOD1 mice, vs vehicle
Description: as §2, §3, §4, §5

[4] = test system: primary cultures of cerebrocortical astrocytes; assay: Extracellular lactate quantification (lactate release from primary astrocytes); type: cell-based; settings: primary mouse astrocytes, 90 min
Description: as §1
Secretion of L-lactate was measured in the extracellular medium of 96-well plated astrocytes after 90 min stimulation (at 37° C., in 5% CO2/95% air conditions) with Vehicle (DMSO), the compounds of the invention (100 nM to 100 μM) or positive control. […] To quantify lactate concentrations in the extracellular medium, 200 μl of a 0.2M Glycine-semicarbazide buffer (pH 10) containing 3 mM NAD and 14 U/ml LDH was added to each well of a 96-well plate containing 30 μl aliquots of extracellular medium. […] Fluorescence intensity (340 nm excitation/450 nm emission), which represents the amount of NADH produced, was measured, and lactate concentration values were determined relative to a standard curve of L-lactate concentrations. […]

[5] = test system: cerebral extracellular levels of lactate; assay: In vivo pharmacodynamics - lactate biosensors; set-up: species or system mouse; settings: 3 h recording, freely moving mice, vs vehicle
Description: as §2, §3
Cerebral extracellular levels of lactate were monitored in vivo using lactate biosensors (Pinnacle Technology), according to the manufacturer's instructions. […] After surgery, mice were monitored closely and received analgesic treatment for at least 4 days. […] Concentrations of cerebral extracellular lactate were calculated from lactate probe electric signals using post-calibration values. […] Area Under the Curve (AUC) of lactate concentration curves were calculated using Graphad Prism and the ratio of AUC after drug over Vehicle administration was calculated.

primary astrocytes [6] = assay: MTT mitochondrial activity assay in astrocytes; type: cell-based, mouse; settings: 24 h, maximum concentration (200 μM)
Description: Primary cultures of cerebrocortical astrocytes were obtained from 1 to 2-day-old OF1 mouse pups (Charles River). Briefly, cortices were isolated and minced in small pieces under a dissecting microscope. The cells were incubated for 30 min at 37° C. in a solution containing 20 U/ml papain, 1 mM L-cysteine and 10 kU/ml DNase I. After dissociation, papain activity was stopped by the addition of fetal calf serum (FCS). Single-cell suspension was then obtained by mechanical dissociation, which consisted in cells trituration in a DMEM D7777 medium supplemented with 44 mm NaHCO3, 10 ml/L antibiotic/antimycotic solution and 10% FCS. The cells were seeded at an average density of 6×10^4 cells/cm^2 on poly-D-lysine-coated 96- or 12-well culture plates, depending on their use, and grown in DMEM D7777 medium supplemented with 44 mm NaHCO3, 10 ml/L antibiotic/antimycotic solution and 10% FCS at 37° C. in a humidified atmosphere containing 5% CO2/95% air. Culture medium was renewed twice a week. Cells were stimulated and harvested between DIV14 and DIV17, when confluence and cell growth were optimal.
To monitor mitochondrial activity in astrocytes, which is linked to the metabolic process of glycolysis and production of lactate, astrocytes in 96-well plates were stimulated for 24 h (37° C. 5% CO2/95% air) with the compounds of the invention ranging from 0.2 to 200 μM. After stimulation, 5 mg/ml thiazol blue tetrazolium bromide (MTT) in D5030 medium complemented with 5 mM D-glucose and 44 mM sodium bicarbonate (pH 7.2) was added to each well, and cells were incubated for 4 h at 37° C. (5% CO2). The medium was then removed and the amount of reduced MTT, i.e formazan, solubilized in DMSO (50 μl/well) was determined using a spectrophotometer (absorbance of 570 nm).
The mitochondrial activity in primary astrocytes treated with Compounds (2) to (4) at concentrations ranging from 1 nM to 200 μM. After 24 h, mitochondrial activity was monitored in MTT colorimetric assay as described above (FIG. 3).

C57Bl/6 wild-type mice = assay: Long-term memory test - inhibitory avoidance (IA); type: in vivo, mouse; settings: 100 mg/kg oral single dose 20 min before training
Description: as §2
Animals were housed in groups of 3-5 in polypropylene cages (30×40×15 cm) with wire mesh top in a temperature (22±2° C.) and humidity (55±15%) controlled environment on a 12 hour light cycle (07.00-19.00 h lights on), except after surgeries when animal were housed individually. The samples (Vehicle or compounds of the invention) were administered per os (gavage) in a solution made of water supplemented with 0.4% hydroxypropyl methylcellulose (HPMC) Methocel 4KM (w/v) and 0.25% Tween-20 (v/v), as previously described (Thackaberry et al., 2010, Toxicol Sci., 117(2):485-92). Concentrations of the compounds tested ranged from 10 to 100 mg/kg.
IA test is a well-established memory paradigm in rodents that measures contextual memory associated with a mild electrical footshock in a specific context (the dark compartment of the IA chamber). Groups of 8-week old C57Bl/6 wild-type […] mice were tested. Each mouse was handled for 5 minutes per day for at least 4 consecutive days to reduce animal's stress due to experimenter's presence/manipulation during test days. Inhibitory avoidance was carried out in an IA chamber (MedAssociates) that consists in a rectangular Perspex box divided into a safe and a shock compartment separated by an automatically operated sliding door. The safe compartment is white and illuminated while the shock compartment is black and dark. Mice were trained for IA 20 min after oral administration of the drug or vehicle. During training, mice were placed into the safe compartment with their heads facing away from the door. […] Memory retention was measured at 24 h or 3 weeks after training by placing the mouse back into the lit compartment and recording its latency (in seconds) to enter the dark compartment. […]

COc1cc2ccnc(Nc3ccc(OC(F)(F)F)cc3)c2cc1OC [Compound 1, 6,7-dimethoxy-N-(4-(trifluoromethoxy)phenyl)isoquinolin-1-amine]
Degradation of intracellular glycogen (primary astrocytes [1]): significantly enhances the degradation of intracellular glycogen | Onset of symptoms (grip test) ([2]; 10 mg/kg orally every day from post-natal day 30, G93A SOD1 mice): delayed the onset of the symptoms | Muscle function (grip test) ([2]; 10 mg/kg orally every day from post-natal day 30, measured weekly until 16 weeks of age): remained significantly improved | Life span (Kaplan-Meier survival) [3]: significantly increased life span | Concentration at which the effect on lactate release is already significant [4]: below 1 μM | Extracellular lactate levels in the brain ([5]; 10 mg/kg per os): significantly increases extracellular lactate levels | Extracellular lactate levels in the brain ([5]; 100 mg/kg per os): significantly increases extracellular lactate levels | Remaining mitochondrial activity at maximum concentration compared to vehicle (primary astrocytes [6]): 8.05% | Latency to enter the dark compartment at training (C57Bl/6 wild-type mice): same latencies at training | Latency to enter the dark compartment, 3 weeks after training (C57Bl/6 wild-type mice; vs vehicle): significantly higher | Latency to enter the dark compartment, 24 h after training (C57Bl/6 wild-type mice; vs vehicle): significantly higher

COc1cc2ccnc(Nc3ccc(C(F)(F)F)cc3)c2cc1OC [Compound 2, 6,7-dimethoxy-N-(4-(trifluoromethyl)phenyl)isoquinolin-1-amine]
Remaining mitochondrial activity at maximum concentration compared to vehicle (primary astrocytes [6]): 7.86%

FC(F)(F)Oc1ccc(Nc2nccc3ccccc23)cc1 [Compound 3, N-(4-(trifluoromethoxy)phenyl)isoquinolin-1-amine]
Remaining mitochondrial activity at maximum concentration compared to vehicle (primary astrocytes [6]): 35.9%

COc1cc2ccnc(Cc3ccc(OC(F)(F)F)cc3)c2cc1OC [Compound 4, 6,7-dimethoxy-1-(4-(trifluoromethoxy)benzyl)isoquinoline]
Remaining mitochondrial activity at maximum concentration compared to vehicle (primary astrocytes [6]): 77.3%

Reference: patent publication US20210275516A1, “LACTATE ENHANCING COMPOUNDS AND USES THEREOF” (ECOLE POLYTECHNIQUE FEDERALE DE LAUSANNE (EPFL), priority 2018, published 2021)
